# In ChEMBL document CHEMBL3885881, “DrugMatrix”:
# Species on record: Rattus norvegicus
# Test: DrugMatrix - Regimen: Daily Repeat
# Assay type: toxicity, organism-based, Sprague-Dawley
# Set-up: regimen Daily Repeat, gender Male, age 6-8 weeks
# Settings: in vivo, po, route oral GAVAGE, […]; for ABSOLUTE BASOPHIL / ABSOLUTE EOSINOPHIL / ABSOLUTE LYMPHOCYTE / ABSOLUTE MONOCYTE / ABSOLUTE SEGMENTED NEUTROPHIL / BASOPHIL / EOSINOPHIL / ERYTHROCYTE COUNT / HEMATOCRIT / HEMOGLOBIN / LEUKOCYTE COUNT / LYMPHOCYTE / MEAN CORPUSCULAR HEMOGLOBIN / MEAN CORPUSCULAR HEMOGLOBIN CONCENTRATION / MEAN CORPUSCULAR VOLUME / MONOCYTE / NEUTROPHIL / NUCLEATED RED BLOOD CELLS / PLATELET COUNT: tissue Blood; for ALANINE AMINOTRANSFERASE / ALBUMIN / ALKALINE PHOSPHATASE / ASPARTATE AMINOTRANSFERASE / BLOOD UREA NITROGEN / CARBON DIOXIDE / CHLORIDE / CHOLESTEROL / CREATINE PHOSPHOKINASE / CREATININE / GLUCOSE / LACTATE DEHYDROGENASE / LIPASE / PHOSPHORUS / POTASSIUM / SODIUM / TOTAL BILIRUBIN / TOTAL PROTEIN / URIC ACID: tissue Plasma
# [1] = 10 mg/kg, 120 h, dose level Low, time 5 day
# [2] = 1100 mg/kg, 72 h, dose level High, time 3 day
# [3] = 1100 mg/kg, 120 h, dose level High, time 5 day
structure (smiles),measurement,setting,value
COCCOC(=O)C1=C(C)NC(C)=C(C(=O)OC(C)C)C1c1cccc([N+](=O)[O-])c1 (centres undefined) [NIMODIPINE],ABSOLUTE BASOPHIL,[1],0 CELLS/uL
same,ABSOLUTE EOSINOPHIL,[1],0 CELLS/uL
same,ABSOLUTE LYMPHOCYTE,[1],13499.67 CELLS/uL
same,ABSOLUTE MONOCYTE,[1],96.33 CELLS/uL
same,ABSOLUTE SEGMENTED NEUTROPHIL,[1],1037.33 CELLS/uL
same,BASOPHIL,[1],0%
same,EOSINOPHIL,[1],0%
same,ERYTHROCYTE COUNT,[1],5.7 x10E6/uL
same,HEMATOCRIT,[1],36.23%
same,HEMOGLOBIN,[1],13.9 G/DL
same,LEUKOCYTE COUNT,[1],14.63 x10E3/uL
same,LYMPHOCYTE,[1],92.67%
same,MEAN CORPUSCULAR HEMOGLOBIN,[1],24.4 pg
same,MEAN CORPUSCULAR HEMOGLOBIN CONCENTRATION,[1],38.37 G/DL
same,MEAN CORPUSCULAR VOLUME,[1],63.63 fL
same,MONOCYTE,[1],0.67%
same,NEUTROPHIL,[1],6.67%
same,NUCLEATED RED BLOOD CELLS,[1],0 /100WBC
same,PLATELET COUNT,[1],940 x10E3/uL
same,ALANINE AMINOTRANSFERASE,[1],59.33 u/L
same,ALBUMIN,[1],4.3 G/DL
same,ALKALINE PHOSPHATASE,[1],389.33 u/L
same,ASPARTATE AMINOTRANSFERASE,[1],102.33 u/L
same,BLOOD UREA NITROGEN,[1],15 mg/dL
same,CARBON DIOXIDE,[1],31.67 mmol/L
same,CHLORIDE,[1],100 MEQ/L
same,CHOLESTEROL,[1],63 mg/dL
same,CREATINE PHOSPHOKINASE,[1],716.33 u/L
same,CREATININE,[1],0.16 mg/dL
same,GLUCOSE,[1],145.33 mg/dL
same,LACTATE DEHYDROGENASE,[1],194.33 u/L
same,LIPASE,[1],9.33 u/L
same,PHOSPHORUS,[1],10.4 mg/dL
same,POTASSIUM,[1],5.95 MEQ/L
same,SODIUM,[1],143.1 MEQ/L
same,TOTAL BILIRUBIN,[1],0.23 mg/dL
same,TOTAL PROTEIN,[1],6.2 G/DL
same,URIC ACID,[1],0.83 mg/dL
same,ABSOLUTE BASOPHIL,[2],0 CELLS/uL
same,ABSOLUTE EOSINOPHIL,[2],0 CELLS/uL
same,ABSOLUTE LYMPHOCYTE,[2],8640.33 CELLS/uL
same,ABSOLUTE MONOCYTE,[2],0 CELLS/uL
same,ABSOLUTE SEGMENTED NEUTROPHIL,[2],859.67 CELLS/uL
same,BASOPHIL,[2],0%
same,EOSINOPHIL,[2],0%
same,ERYTHROCYTE COUNT,[2],6.21 x10E6/uL
same,HEMATOCRIT,[2],37.2%
same,HEMOGLOBIN,[2],14.77 G/DL
same,LEUKOCYTE COUNT,[2],9.5 x10E3/uL
same,LYMPHOCYTE,[2],91%
same,MEAN CORPUSCULAR HEMOGLOBIN,[2],23.77 pg
same,MEAN CORPUSCULAR HEMOGLOBIN CONCENTRATION,[2],39.7 G/DL
same,MEAN CORPUSCULAR VOLUME,[2],59.87 fL
same,MONOCYTE,[2],0%
same,NEUTROPHIL,[2],9%
same,NUCLEATED RED BLOOD CELLS,[2],0.33 /100WBC
same,PLATELET COUNT,[2],1341.67 x10E3/uL
same,ALANINE AMINOTRANSFERASE,[2],90 u/L
same,ALBUMIN,[2],4.17 G/DL
same,ALKALINE PHOSPHATASE,[2],427.67 u/L
same,ASPARTATE AMINOTRANSFERASE,[2],82.67 u/L
same,BLOOD UREA NITROGEN,[2],13 mg/dL
same,CARBON DIOXIDE,[2],27.33 mmol/L
same,CHLORIDE,[2],97.67 MEQ/L
same,CHOLESTEROL,[2],77.67 mg/dL
same,CREATINE PHOSPHOKINASE,[2],248.33 u/L
same,CREATININE,[2],0.17 mg/dL
same,GLUCOSE,[2],211.67 mg/dL
same,LACTATE DEHYDROGENASE,[2],205.33 u/L
same,LIPASE,[2],11.33 u/L
same,PHOSPHORUS,[2],10.23 mg/dL
same,POTASSIUM,[2],4.32 MEQ/L
same,SODIUM,[2],139.8 MEQ/L
same,TOTAL BILIRUBIN,[2],0.4 mg/dL
same,TOTAL PROTEIN,[2],6.33 G/DL
same,URIC ACID,[2],0.47 mg/dL
same,ABSOLUTE BASOPHIL,[3],0 CELLS/uL
same,ABSOLUTE EOSINOPHIL,[3],0 CELLS/uL
same,ABSOLUTE LYMPHOCYTE,[3],5312.67 CELLS/uL
same,ABSOLUTE MONOCYTE,[3],159.33 CELLS/uL
same,ABSOLUTE SEGMENTED NEUTROPHIL,[3],1728 CELLS/uL
same,BASOPHIL,[3],0%
same,EOSINOPHIL,[3],0%
same,ERYTHROCYTE COUNT,[3],7.19 x10E6/uL
same,HEMATOCRIT,[3],42.83%
same,HEMOGLOBIN,[3],16.87 G/DL
same,LEUKOCYTE COUNT,[3],7.2 x10E3/uL
same,LYMPHOCYTE,[3],75.67%
same,MEAN CORPUSCULAR HEMOGLOBIN,[3],23.43 pg
same,MEAN CORPUSCULAR HEMOGLOBIN CONCENTRATION,[3],39.33 G/DL
same,MEAN CORPUSCULAR VOLUME,[3],59.63 fL
same,MONOCYTE,[3],2%
same,NEUTROPHIL,[3],22.33%
same,NUCLEATED RED BLOOD CELLS,[3],0 /100WBC
same,PLATELET COUNT,[3],1410 x10E3/uL
same,ALANINE AMINOTRANSFERASE,[3],65.33 u/L
same,ALBUMIN,[3],4 G/DL
same,ALKALINE PHOSPHATASE,[3],160 u/L
same,ASPARTATE AMINOTRANSFERASE,[3],89.33 u/L
same,BLOOD UREA NITROGEN,[3],43.67 mg/dL
same,CARBON DIOXIDE,[3],34.33 mmol/L
same,CHLORIDE,[3],84 MEQ/L
same,CHOLESTEROL,[3],75 mg/dL
same,CREATINE PHOSPHOKINASE,[3],283.67 u/L
same,CREATININE,[3],0.22 mg/dL
same,GLUCOSE,[3],198.67 mg/dL
same,LACTATE DEHYDROGENASE,[3],180 u/L
same,LIPASE,[3],12.33 u/L
same,PHOSPHORUS,[3],9.97 mg/dL
same,POTASSIUM,[3],3.85 MEQ/L
same,SODIUM,[3],133.83 MEQ/L
same,TOTAL BILIRUBIN,[3],0.3 mg/dL
same,TOTAL PROTEIN,[3],6.2 G/DL
same,URIC ACID,[3],0.3 mg/dL
